Source: publication PMC4526861, “Inhibition of protein kinase C by isojacareubin suppresses hepatocellular carcinoma metastasis and induces apoptosis in vitro and in vivo” (Scientific Reports, 2015)

Assays:
QGY-7703 cells = test: Cell proliferation assay (CCK-8), QGY-7703; format: cell-based, human; details: for IC50: Homo sapiens, QGY-7703, mean ± SD, at least three independent experiments; for Inhibitory Ratio (%) QGY-7703: 50 μM
Protocol: (§1) The human HCC cell lines QGY-7703, SMMC-7721 and HepG2 and the liver cell line QSG-7701 were supplied by the Cell Resource Center, Institute of Life Sciences, Chinese Academy of Medical Science. QGY-7703, SMMC-7721 and QSG-7701 cells were cultured in 1640 medium (Gibco), and HepG2 cells were cultured in DMEM medium (Gibco) at 37 °C in moist air supplemented with 5% CO2. All media were supplemented with 10% fetal bovine serum (FBS) and 100 Units/mL of penicillin/streptomycin.
(§2) The cell viability assay was performed as previously reported using a Cell Counting Kit-8 (CCK-8; Dojindo, Kumamoto, Japan)[33][34]. The relative cell viability was presented as % inhibition and calculated using the following formula: […]

QSG-7701 hepatocytes = test: Cell proliferation assay (CCK-8), QSG-7701 hepatocytes; format: cell-based, human; details: Homo sapiens, QSG7701; nonmalignant hepatocytes; mean ± SD
Protocol: as §1, §2

SMMC-7721 cells = test: Cell proliferation assay (CCK-8), SMMC-7721; format: cell-based, human; details: Homo sapiens, SMMC-7721; mean ± SD, at least three independent experiments
Protocol: as §1, §2

HepG2 cells [1] = test: Cell proliferation assay (CCK-8), HepG2; format: cell-based, human; details: for IC50: Homo sapiens, HepG2, mean ± SD, at least three independent experiments; for Inhibitory Ratio (%) HepG2: 50 μM
Protocol: as §1, §2

HepG2 xenografts = test: Antitumor activity in vivo, HepG2 xenograft; set-up: species or system BALB/c-nu nude mice; details: 5 mg/kg, tail vein injection every other day for two weeks
Protocol: Four-week-old male BALB/c-nu nude mice (15–20 g) were obtained from the Shanghai SLAC Laboratory Animal Co., Ltd. (Shanghai, China). The animals were maintained under specific pathogen-free conditions with food and water supplied ad libitum in the Laboratory Animal Center of the Second Military Medical University. All animal experiments were carried out in accordance with the Guide for the Care and Use of Laboratory Animals of the National Institutes of Health and were approved by the Committee on the Ethics of Animal Experiments of the Second Military Medical University, China.
(§3) HepG2 cells were harvested and resuspended in PBS. A total of 5 × 10^6 cells were subcutaneously injected into the right flank. Tumor volume was calculated using the following formula: V = (L × W^2)/2, where L is the length and W is the width of the tumor nodules measured with vernier calipers. Once the volume of the tumors reached 75–100 mm^3, the mice were randomly divided into three groups (n = 5). The mice were treated every other day for two weeks with tail vein injections of either vehicle (5% ethanol and 2.5% polyethylene glycol in saline), compound 7, or ISJ (5 mg/kg in the vehicle). Body weights were measured before each drug injection. After the 15th day, the mice were euthanized, and the tumors were isolated, weighed and photographed.

HepG2 cells [2] = test: Apoptosis assay, Annexin V-FITC/PI flow cytometry; format: cell-based, human; details: 48 h
Protocol: To further explore the potential mechanisms of the antiproliferative effects induced by compound 7 and ISJ, Annexin V-FITC/PI double staining was performed to quantify cellular apoptosis by flow cytometry. HepG2 cells were cultured for 48 h in the absence or presence of compound 7 or ISJ at different concentrations (5 or 15 μM).
HepG2 cells were seeded in six-well plates (5 × 10^5 cells/mL) for 24 h and then treated with various amounts of the compounds or 1% DMSO (as control). After 48 h, the cells floating in the medium were collected, and the adherent cells were detached with 0.05% trypsin, washed twice with cold PBS, and centrifuged at 1000 rpm for 5 min at 4 °C. Subsequently, HepG2 cells were gently resuspended in the binding buffer. Thereafter, the cells were stained using the Annexin V-FITC/PI apoptosis detection kit (BD Biosciences, San Jose, CA, USA). After incubation at room temperature for 15 min in the dark, the apoptotic cells were immediately analyzed by flow cytometry (FACS Calibur).

[3] = Body weight in xenograft study; format: in vivo, BALB/c-nu nude mice; details: 5 mg/kg, tail vein, two weeks
Protocol: as §3

HepG2 cells [4] = test: Matrigel invasion assay; format: cell-based, human; details: Homo sapiens, HepG2, 24 h, read-out: inhibition of invasiveness compared to control
Protocol: (§4) Cell migration and invasion potencies were studied using wound healing and Matrigel invasion assays. The wound healing assay was performed by scratching the cell surface with a 10 μL pipette tip. Then, the cells were treated with compound 7 and ISJ (10 μM) and incubated for 24 h before being photographed under a microscope (DMI3000 B, Leica). Wound closure was evaluated using ImageJ software. Invasion through a Matrigel-coated filter was measured in transwell chambers (Corning Costa) as described previously, with minor modifications. Briefly, HepG2 Cells (2 × 10^5/well) were suspended in serum-free medium and added to the upper chamber of the Matrigel plate. FBS (10%) was used as the chemoattractant in the lower chamber. After incubation for 24 h, the non-invading cells were removed from the upper surface of the insert membrane with a cotton swab. The invading cells were fixed with methanol and stained with Giemsa (Sigma). Cells in five randomly selected fields were photographed, and the numbers of cells that crossed the membrane were counted.

HepG2 cells [5] = test: Wound healing (migration) assay; format: cell-based, human; details: 10 μM, 24 h
Protocol: as §4

PKCζ = test: Western blot of PKC isoform expression in cytosol and membrane; format: cell-based, human; details: HepG2, 24 h incubation
Protocol: To further determine whether compound 7 and ISJ represent potential candidates for selective PKC expression inhibitors against hepatoma, the expression of PKC isoforms in HepG2 cells was characterized by western blotting. After 24 h of incubation with GFX, GO, ISJ and compound 7 at the indicated concentrations, PKC proteins from the cytosol and membrane of HepG2 cells were evaluated. ISJ and compound 7 treatments reduced both the cytosol and cell membrane expression of PKCζ.
(§5) The total membrane and cytosolic proteins were extracted using a Membrane and Cytosol Protein Extraction Kit (Beyotime). Extracted proteins from cells or animal tissues were separated by SDS-PAGE and transferred to polyvinylidene difluoride (PVDF) membranes (Bio-Rad). The PVDF membranes were blocked with 5% nonfat milk and incubated with primary antibodies overnight, followed by incubation with a donkey anti-rabbit or anti-mouse secondary antibody (IRDye 800, LI-COR, Biosciences). The images were captured using the Odyssey Infrared Imaging System (LI-COR, Biosciences), according to the manufacturer's instructions. The intensity was quantitative with Quantity One software (Bio-Rad). To ensure equal protein loading, each membrane was stripped and reprobed with an anti-β-actin antibody. All experiments were repeated independently no less than three times.

[6] = system: c-PARP, c-Cas3 and c-Cas9 in xenograft tumors; test: Histology, IHC and immunoblot of xenograft tumors; format: in vivo, BALB/c-nu nude mice; details: 5 mg/kg
Protocol: as §5
To further confirm the antitumor activities of compound 7 and ISJ in vivo, histological analysis was performed on the hepatoma xenografts. Briefly, the samples were fixed in a 10% formalin solution, processed, embedded, sectioned and either H&E stained to reveal tumor tissue necrosis or IHC stained using antibodies against c-PARP, c-Cas3 or c-Cas9. The H&E and IHC images were obtained on a Leica DMI3000 B phase-contrast microscopy. The immunoreactive areas in the IHC images were quantified using ImagePro Plus 6.0 software (Media Cybernetics, Silver Spring, MD). The integrated optical density (IOD) values were represented as the mean ± SEM.

PKC = PKC activity assay (PepTag non-radioactive, HepG2 lysates); format: biochemical, human; details: 3 h
Protocol: The activity of PKC in HepG2 cells was assessed 3 h after the addition of compound 7 or ISJ by measuring the phosphorylation of a PKC-specific target peptide. Compared to the basal control (in the absence of any compound), PKC activity was inhibited by compound 7 and ISJ.
Figure 3 Effects of compound 7 and ISJ on PKC activity in HepG2 cells. The proteins from lysed HepG2 cells were prepared and measured for their ability to phosphorylate a PKC-specific peptide substrate (PLSRTLSVAAK) in a non-radioactive assay. (a) Lanes 1 and 2 show the negative (water only) and positive controls (with 20 ng purified PKC). Supernatants from HepG2 cells were subjected to the PKC activity assay in the absence (basal control, lane 3) or presence (lanes 4–7) of the compounds. Compound 7 (lanes 4 and 5) and ISJ (lanes 6 and 7) were added separately at 10 and 5 μM. (b) Quantification of (a); *P < 0.05 versus the basal control. Data are shown as the mean ± SD of three independent experiments.
The PKC activity assay was carried out as previously reported, according to the instructions of the PepTag non-radioactive PKC assay kit (Promega)[60]. The bands were photographed using the Syngene GBOX-iCHEMI-XR system, and the phosphorylated bands were cut out for quantification measurement at 570 nm.

advanced HCC = system: advanced HCC; set-up: method as in PMID 18650514; details: patients with advanced HCC; cited from earlier work

| Compound | Inhibitory Ratio (%) QGY-7703 (QGY-7703 cells) [%] | Inhibitory Ratio (%) HepG2 (HepG2 cells [1]) [%] | also measured |
| --- | --- | --- | --- |
| O=c1[nH]cc(F)c(=O)[nH]1 [5-Fu, 5-Fluorouracil, reference compound] | – | – | IC50 (QGY-7703 cells): 15.66 ± 0.07 µM; IC50 (QSG-7701 hepatocytes): 0.6 ± 0.03 µM; IC50 (SMMC-7721 cells): 14.6 ± 0.36 µM; IC50 (HepG2 cells [1]): 12.48 ± 0.11 µM |
| COc1cc(OC)c2c(=O)c3ccc(OC)c(OC)c3oc2c1 [compound 5] | 20.81 | 22.61 | melting point: 138 to 140 °C |
| O=c1c2ccc(O)c(O)c2oc2cc(O)cc(O)c12 [compound 6] | −0.66 | 13.80 | – |
| O=c1c2ccc3c(c2oc2cc(O)cc(O)c12)OC(c1ccccc1)(c1ccccc1)O3 [compound 7, 7,9-dihydroxy-2,2-diphenyl-6H-[1,3]dioxolane[4,5-c]xanthen-6h-one] | 79.93 | 90.99 | reduction of tumor weight compared to controls (HepG2 xenografts): 49.4%; number of apoptotic cells compared to the control group (HepG2 cells [2]; 5 μM): did not alter; percentage of apoptotic cells (HepG2 cells [2]; 15 μM): increased significantly; IC50 (QGY-7703 cells): 9.88 ± 0.18 µM; IC50 (QSG-7701 hepatocytes): 53.51 ± 0.13 µM; change in body weight compared to vehicle-treated controls [3]: no significant change; IC50 (SMMC-7721 cells): 6.35 ± 0.42 µM; inhibition at 10 µM (HepG2 cells [4]): 69%; IC50 (HepG2 cells [1]): 7.34 ± 0.09 µM; decrease of HepG2 cell migration compared to control (HepG2 cells [5]): 76.4%; PKCζ expression in cytosol and cell membrane (PKCζ): reduced; H&E staining of xenograft tumors [6]: significant tissue death; IHC c-PARP, c-Cas3 and c-Cas9 levels in tumors [6]: upregulated expression; immunoblot c-PARP, c-Cas3 and c-Cas9 levels in tumor tissue [6]: increased; inhibition of PKC activity compared to the basal control (PKC; 5 μM): 40.9%; inhibition of PKC activity compared to the basal control (PKC; 10 μM): 54.1% |
| C#CC(C)(C)Oc1cc(O)c2c(=O)c3ccc4c(c3oc2c1)OC(c1ccccc1)(c1ccccc1)O4 [compound 8] | −9.85 | 6.88 | – |
| C#CC(C)(C)Oc1cc(OS(=O)(=O)c2ccc(C)cc2)c2c(=O)c3ccc4c(c3oc2c1)OC(c1ccccc1)(c1ccccc1)O4 [compound 9] | −3.98 | 12.46 | – |
| Cc1ccc(S(=O)(=O)Oc2cc3c(c4oc5c6c(ccc5c(=O)c24)OC(c2ccccc2)(c2ccccc2)O6)C=CC(C)(C)O3)cc1 [compound 10] | 0.66 | 18.01 | – |
| Cc1ccc(S(=O)(=O)Oc2cc3c(c4oc5c(O)c(O)ccc5c(=O)c24)C=CC(C)(C)O3)cc1 [compound 11] | 21.44 | 45.36 | – |
| COc1ccc2c(=O)c3c(OC)cc(OC)c(C=O)c3oc2c1OC [compound 12] | 20.97 | 26.12 | – |
| CCOC(=O)/C=C/c1c(OC)cc(OC)c2c(=O)c3ccc(OC)c(OC)c3oc12 [compound 13] | 16.17 | 47.29 | – |
| CCOC(=O)[C@@H](O)[C@H](O)c1c(OC)cc(OC)c2c(=O)c3ccc(OC)c(OC)c3oc12 [compound 14] | 13.15 | 25.40 | – |
| COc1ccc2c(=O)c3c(OC)cc(OC)c(I)c3oc2c1OC [compound 15] | −1.75 | 24.07 | – |
| COc1ccc2c(=O)c3c(OC)cc(OC)c(/C=C/C(C)(C)O)c3oc2c1OC [compound 16] | 13.26 | 15.95 | – |
| CNC(=O)c1cc(Oc2ccc(NC(=O)Nc3ccc(Cl)c(C(F)(F)F)c3)cc2)ccn1 [sorafenib] | – | – | improvement of overall survival (advanced HCC): approximately three |
